Laboratory results: patent US20250248998A1, “LRRK2 Inhibitors” (Brenig Therapeutics, Inc., priority 2022, published 2025)
pIC50: −log10 of the molar value.

Key:
[1] = molecular target: LRRK2 WT (Homo sapiens, UniProt Q5S007); test: Cell-based NanoBRET target engagement assay in HEK293 cells transfected with LRRK2 WT-NanoLuc fusion vector; design: expressed in transfected cells; host or cells: HEK293 (ATCC); details: compound treatment 1 h
Method: (§1) Example C. Cell-Based NanoBRET Target Engagement Assay in 11EK293 Cells Transiently Transfected with LRRK2 WT- or LRRK2 (G2019S)-Nano Luc Fusion Vector
(§2) H1EK293 (ATCC) cells were transfected with […] LRRK2 WT or LRRK2 (G2019S) and 9 μg transfection carrier DNA. The transfected cells were treated with the compounds (starting at 1 μM, 10-dose with 3-fold dilution) and reference compounds CEP-701 or Staurosporine (starting at 1 μM, 10-dose with 3-fold dilution); compound treatment time: 1 h. LRRK2 WT and LRRK2 (G2019S) target engagement was measured by NanoBRET assay. Curve fits were performed only when % NanoBret signal at the highest concentration of compounds was less than […]. Assay format: 384-well format, 4000 cells/well. The IC50 values are shown in Table C, wherein “A” corresponds to IC50≤50.0 nM, “B” corresponds to 50.0 nM≤IC50<100.0 nM, “C” corresponds to 100.0 nM≤IC50.

[2] = molecular target: LRRK2[G2019S] (Homo sapiens, UniProt Q5S007, G2019S); test: Cell-based NanoBRET target engagement assay in HEK293 cells transfected with LRRK2 (G2019S)-NanoLuc fusion vector; design: expressed in transfected cells; host or cells: HEK293 (ATCC); details: compound treatment 1 h
Chain of LRRK2[G2019S] (Q5S007 whole entry G2019S, the tested form may be a part): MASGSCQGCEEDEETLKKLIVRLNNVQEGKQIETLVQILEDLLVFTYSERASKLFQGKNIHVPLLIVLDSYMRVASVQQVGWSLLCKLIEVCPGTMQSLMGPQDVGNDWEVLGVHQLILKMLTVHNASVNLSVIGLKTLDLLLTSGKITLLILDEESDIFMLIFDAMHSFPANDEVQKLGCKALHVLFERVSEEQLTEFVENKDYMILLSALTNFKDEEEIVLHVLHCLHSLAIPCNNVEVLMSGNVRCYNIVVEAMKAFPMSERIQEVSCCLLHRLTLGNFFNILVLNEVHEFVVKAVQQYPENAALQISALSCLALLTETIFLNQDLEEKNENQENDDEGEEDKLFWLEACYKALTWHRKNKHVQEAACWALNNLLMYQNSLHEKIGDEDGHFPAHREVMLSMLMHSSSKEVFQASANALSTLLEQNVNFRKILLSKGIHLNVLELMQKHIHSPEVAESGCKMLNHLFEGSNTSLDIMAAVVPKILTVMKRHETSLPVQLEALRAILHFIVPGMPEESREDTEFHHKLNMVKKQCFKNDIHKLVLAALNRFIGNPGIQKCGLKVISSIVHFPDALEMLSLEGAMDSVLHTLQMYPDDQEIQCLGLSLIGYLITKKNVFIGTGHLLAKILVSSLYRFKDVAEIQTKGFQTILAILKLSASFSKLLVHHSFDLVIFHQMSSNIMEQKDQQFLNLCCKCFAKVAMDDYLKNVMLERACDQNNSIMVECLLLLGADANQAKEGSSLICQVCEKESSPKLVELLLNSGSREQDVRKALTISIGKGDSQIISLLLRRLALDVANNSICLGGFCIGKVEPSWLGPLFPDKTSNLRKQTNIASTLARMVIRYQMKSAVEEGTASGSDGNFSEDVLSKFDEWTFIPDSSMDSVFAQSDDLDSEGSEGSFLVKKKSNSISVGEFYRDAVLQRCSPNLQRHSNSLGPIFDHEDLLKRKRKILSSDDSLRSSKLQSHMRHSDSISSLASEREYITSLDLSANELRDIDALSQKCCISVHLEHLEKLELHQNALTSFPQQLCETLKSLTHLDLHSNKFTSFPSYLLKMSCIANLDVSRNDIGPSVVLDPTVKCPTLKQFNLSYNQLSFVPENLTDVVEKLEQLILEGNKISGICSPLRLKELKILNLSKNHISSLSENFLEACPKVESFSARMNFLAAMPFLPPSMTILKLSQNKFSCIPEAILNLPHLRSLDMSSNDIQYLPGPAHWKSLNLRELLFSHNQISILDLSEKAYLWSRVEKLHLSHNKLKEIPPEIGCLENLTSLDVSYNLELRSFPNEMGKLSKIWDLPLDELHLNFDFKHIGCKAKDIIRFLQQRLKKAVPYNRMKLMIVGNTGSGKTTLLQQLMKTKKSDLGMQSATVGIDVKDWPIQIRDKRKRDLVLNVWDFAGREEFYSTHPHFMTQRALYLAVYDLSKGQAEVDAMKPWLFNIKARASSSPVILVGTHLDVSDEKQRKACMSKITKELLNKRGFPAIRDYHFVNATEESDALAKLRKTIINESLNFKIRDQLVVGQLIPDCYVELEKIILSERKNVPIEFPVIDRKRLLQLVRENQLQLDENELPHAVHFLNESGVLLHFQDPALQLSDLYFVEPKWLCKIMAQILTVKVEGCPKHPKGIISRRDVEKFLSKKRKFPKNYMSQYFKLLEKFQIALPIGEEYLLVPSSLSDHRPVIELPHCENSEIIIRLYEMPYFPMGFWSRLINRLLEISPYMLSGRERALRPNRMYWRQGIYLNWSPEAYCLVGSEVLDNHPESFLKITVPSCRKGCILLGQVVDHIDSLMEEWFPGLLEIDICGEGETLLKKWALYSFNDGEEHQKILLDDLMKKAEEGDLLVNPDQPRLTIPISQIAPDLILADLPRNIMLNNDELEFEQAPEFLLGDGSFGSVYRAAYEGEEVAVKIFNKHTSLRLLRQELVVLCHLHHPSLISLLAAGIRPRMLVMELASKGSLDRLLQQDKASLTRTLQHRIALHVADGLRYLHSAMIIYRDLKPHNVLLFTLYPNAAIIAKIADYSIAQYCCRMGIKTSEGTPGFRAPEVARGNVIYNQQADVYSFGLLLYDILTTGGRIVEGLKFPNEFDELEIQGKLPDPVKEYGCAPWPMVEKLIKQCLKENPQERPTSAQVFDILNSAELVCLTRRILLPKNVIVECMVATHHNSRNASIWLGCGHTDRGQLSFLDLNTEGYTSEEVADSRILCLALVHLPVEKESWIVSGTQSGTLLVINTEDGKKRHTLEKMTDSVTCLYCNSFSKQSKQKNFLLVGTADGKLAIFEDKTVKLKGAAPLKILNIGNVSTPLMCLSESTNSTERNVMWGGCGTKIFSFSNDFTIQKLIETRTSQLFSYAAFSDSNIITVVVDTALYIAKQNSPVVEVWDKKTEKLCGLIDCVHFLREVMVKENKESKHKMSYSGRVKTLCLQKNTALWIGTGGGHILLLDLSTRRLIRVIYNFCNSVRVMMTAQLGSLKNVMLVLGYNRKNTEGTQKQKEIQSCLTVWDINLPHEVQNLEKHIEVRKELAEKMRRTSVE
Method: as §1, §2

Chain of LRRK2 WT (Q5S007 whole entry, the tested form may be a part): as the sequence (Q5S007 whole entry G2019S, the tested form may be a part) above, with S2019G counted along it

| Compound | pIC50 [1] | pIC50 [2] |
| --- | --- | --- |
| Cn1nc(-c2n[nH]c3ccc(OC4(C)CC4)cc23)cc(N2CCNCC(C)(O)C2)c1=O (centres unmarked) [Compound 93, 4-(6-hydroxy-6-methyl-1,4-diazepan-1-yl)-2-methyl-6-[5-(1-methylcyclopropoxy)-1H-indazol-3-yl]pyridazin-3-one] | ≤ 7.00 | ≤ 7.00 |
| CN1CCN(c2cc(-c3n[nH]c4ccc(OC5(C)CC5)cc34)nn(C)c2=O)CC(F)(F)C1 [Compound 64, 4-(6,6-difluoro-4-methyl-1,4-diazepan-1-yl)-2-methyl-6-[5-(1-methylcyclopropoxy)-1H-indazol-3-yl]pyridazin-3-one] | 7.00 to 7.30 | ≥ 7.30 |
| Cn1nc(-c2n[nH]c3ccc(OC4(C)CC4)cc23)cc(N2CCC(C)(C)NC(C)(C)C2)c1=O [Compound 68, 2-methyl-6-[5-(1-methylcyclopropoxy)-1H-indazol-3-yl]-4-(3,3,5,5-tetramethyl-1,4-diazepan-1-yl)pyridazin-3-one] | ≤ 7.00 | ≤ 7.00 |
| Cn1nc(-c2n[nH]c3ccc(OC4(C)CC4)cc23)cc(N2CC(O)C(C)(C)C2)c1=O (centres unmarked) [Compound 62, 4-(4-hydroxy-3,3-dimethyl-pyrrolidin-1-yl)-2-methyl-6-[5-(1-methylcyclopropoxy)-1H-indazol-3-yl]pyridazin-3-one] | ≥ 7.30 | ≥ 7.30 |
| Cn1nc(-c2n[nH]c3ccc(OC4(C)CC4)cc23)cc(N2CCCC(C)(O)CC2)c1=O (centres unmarked) [Compound 79, 4-(4-hydroxy-4-methyl-azepan-1-yl)-2-methyl-6-[5-(1-methylcyclopropoxy)-1H-indazol-3-yl]pyridazin-3-one] | ≥ 7.30 | ≥ 7.30 |
| Cn1nc(-c2n[nH]c3ccc(OC4(C)CC4)cc23)cc(N2CCCOC(C)(C)C2)c1=O [Compound 73, 4-(2,2-dimethyl-1,4-oxazepan-4-yl)-2-methyl-6-[5-(1-methylcyclopropoxy)-1H-indazol-3-yl]pyridazin-3-one] | 7.00 to 7.30 | ≥ 7.30 |
| Cn1nc(-c2n[nH]c3ccc(OC4(C)CC4)cc23)cc(N2CCCCC(C)(O)C2)c1=O (centres unmarked) [Compound 81, 4-(3-hydroxy-3-methyl-azepan-1-yl)-2-methyl-6-[5-(1-methylcyclopropoxy)-1H-indazol-3-yl]pyridazin-3-one] | ≥ 7.30 | ≥ 7.30 |
| Cn1nc(-c2n[nH]c3ccc(OC4(C)CC4)cc23)cc(N2CCCN(CC(C)(C)O)CC2)c1=O [Compound 84, 4-[4-(2-hydroxy-2-methyl-propyl)-1,4-diazepan-1-yl]-2-methyl-6-[5-(1-methylcyclopropoxy)-1H-indazol-3-yl]pyridazin-3-one] | ≥ 7.30 | ≥ 7.30 |
| Cn1nc(-c2n[nH]c3ccc(OC4(C)CC4)cc23)cc(N2CC(F)C3(CC3)C2)c1=O (centres unmarked) [Compound 57, 4-(7-fluoro-5-azaspiro[2.4]heptan-5-yl)-2-methyl-6-[5-(1-methylcyclopropoxy)-1H-indazol-3-yl]pyridazin-3-one] | ≥ 7.30 | ≥ 7.30 |
| Cn1nc(-c2n[nH]c3ccc(OC4(C)CC4)cc23)cc(N2CCCCC(CO)C2)c1=O (centres unmarked) [Compound 75, 4-[3-(hydroxymethyl)azepan-1-yl]-2-methyl-6-[5-(1-methylcyclopropoxy)-1H-indazol-3-yl]pyridazin-3-one] | ≥ 7.30 | ≥ 7.30 |
| Cn1nc(-c2n[nH]c3ccc(OC4(C)CC4)cc23)cc(N2CCCNC(C)(C)C2)c1=O [Compound 67, 4-(3,3-dimethyl-1,4-diazepan-1-yl)-2-methyl-6-[5-(1-methylcyclopropoxy)-1H-indazol-3-yl]pyridazin-3-one] | ≤ 7.00 | ≤ 7.00 |
| Cn1nc(-c2n[nH]c3ccc(OC4(C)CC4)cc23)cc(N2CCC(C(C)(C)O)C2)c1=O (centres unmarked) [Compound 85, 4-[3-(1-hydroxy-1-methyl-ethyl)pyrrolidin-1-yl]-2-methyl-6-[5-(1-methylcyclopropoxy)-1H-indazol-3-yl]pyridazin-3-one] | ≥ 7.30 | ≥ 7.30 |

Second part, the molecule after the results:

| pIC50 [1] | pIC50 [2] | Compound |
| --- | --- | --- |
| ≥ 7.30 | ≥ 7.30 | Cn1nc(-c2n[nH]c3ccc(OC4(C)CC4)cc23)cc(N2CCNC(C(F)(F)F)CC2)c1=O (centres unmarked) [Compound 74, 2-methyl-6-[5-(1-methylcyclopropoxy)-1H-indazol-3-yl]-4-[5-(trifluoromethyl)-1,4-diazepan-1-yl]pyridazin-3-one] |
| ≥ 7.30 | ≥ 7.30 | Cn1nc(-c2n[nH]c3ccc(OC4(C)CC4)cc23)cc(N2CCCOCC2)c1=O [Compound 76, 2-methyl-6-[5-(1-methylcyclopropoxy)-1H-indazol-3-yl]-4-(1,4-oxazepan-4-yl)pyridazin-3-one] |
| ≥ 7.30 | ≥ 7.30 | CC1(Oc2ccc3[nH]nc(-c4cc(N5CC(F)C6(CC6)C5)c(=O)n(C5CC5)n4)c3c2)CC1 (centres unmarked) [Compound 59, 2-cyclopropyl-4-(7-fluoro-5-azaspiro[2.4]heptan-5-yl)-6-[5-(1-methylcyclopropoxy)-1H-indazol-3-yl]pyridazin-3-one] |
| ≥ 7.30 | ≥ 7.30 | CN1CCCN(c2cc(-c3n[nH]c4ccc(OC5(C)CC5)cc34)nn(C)c2=O)CC1 [Compound 63, 2-methyl-6-[5-(1-methylcyclopropoxy)-1H-indazol-3-yl]-4-(4-methyl-1,4-diazepan-1-yl)pyridazin-3-one] |
| ≥ 7.30 | ≥ 7.30 | Cn1nc(-c2n[nH]c3ccc(OC4(C)CC4)cc23)cc(N2CCC(O)C(F)CC2)c1=O (centres unmarked) [Compound 82, 4-(4-fluoro-5-hydroxy-azepan-1-yl)-2-methyl-6-[5-(1-methylcyclopropoxy)-1H-indazol-3-yl]pyridazin-3-one] |
| ≥ 7.30 | ≥ 7.30 | CC1(Oc2ccc3[nH]nc(-c4cc(N5CC(C)(C)C6COCC65)c(=O)n(C5CC5)n4)c3c2)CC1 (centres unmarked) [Compound 49, 2-cyclopropyl-4-(3,3-dimethyl-3a,4,6,6a-tetrahydro-2H-furo[3,4-b]pyrrol-1-yl)-6-[5-(1-methylcyclopropoxy)-1H-indazol-3-yl]pyridazin-3-one] |
| ≥ 7.30 | ≥ 7.30 | CC1CCN(c2cc(-c3n[nH]c4ccc(OC5(C)CC5)cc34)nn(C)c2=O)CC(C)O1 (centres unmarked) [Compound 70, 4-(2,7-dimethyl-1,4-oxazepan-4-yl)-2-methyl-6-[5-(1-methylcyclopropoxy)-1H-indazol-3-yl]pyridazin-3-one] |
| ≥ 7.30 | ≥ 7.30 | CC1(Oc2ccc3[nH]nc(-c4cc(N5CCOCC6(CC6)C5)c(=O)n(C5CC5)n4)c3c2)CC1 [Compound 53, 2-cyclopropyl-6-[5-(1-methylcyclopropoxy)-1H-indazol-3-yl]-4-(5-oxa-8-azaspiro[2.6]nonan-8-yl)pyridazin-3-one] |
| ≥ 7.30 | ≥ 7.30 | CC(C)N1CCCN(c2cc(-c3n[nH]c4ccc(OC5(C)CC5)cc34)nn(C)c2=O)CC1 [Compound 96, 4-(4-isopropyl-1,4-diazepan-1-yl)-2-methyl-6-[5-(1-methylcyclopropoxy)-1H-indazol-3-yl]pyridazin-3-one] |
| ≥ 7.30 | ≥ 7.30 | Cn1nc(-c2n[nH]c3ccc(OC4(C)CC4)cc23)cc(N2CCOCC(C)(O)C2)c1=O (centres unmarked) [Compound 90, 4-(6-hydroxy-6-methyl-1,4-oxazepan-4-yl)-2-methyl-6-[5-(1-methylcyclopropoxy)-1H-indazol-3-yl]pyridazin-3-one] |
| ≥ 7.30 | ≥ 7.30 | CC1CCN(c2cc(-c3n[nH]c4ccc(OC5(C)CC5)cc34)nn(C)c2=O)CCC1O (centres unmarked) [Compound 78, 4-(4-hydroxy-5-methyl-azepan-1-yl)-2-methyl-6-[5-(1-methylcyclopropoxy)-1H-indazol-3-yl]pyridazin-3-one] |
| ≥ 7.30 | ≥ 7.30 | Cn1nc(-c2n[nH]c3ccc(OC4(C)CC4)cc23)cc(N2CCOC(CO)CC2)c1=O (centres unmarked) [Compound 92, 4-[7-(hydroxymethyl)-1,4-oxazepan-4-yl]-2-methyl-6-[5-(1-methylcyclopropoxy)-1H-indazol-3-yl]pyridazin-3-one] |
| ≥ 7.30 | ≥ 7.30 | CC1(Oc2ccc3[nH]nc(-c4cc(N5CC(F)C(C)(C)C5)c(=O)n(C5CC5)n4)c3c2)CC1 (centres unmarked) [Compound 61, 2-cyclopropyl-4-(4-fluoro-3,3-dimethyl-pyrrolidin-1-yl)-6-[5-(1-methylcyclopropoxy)-1H-indazol-3-yl]pyridazin-3-one] |
| ≥ 7.30 | ≥ 7.30 | Cn1nc(-c2n[nH]c3ccc(OC4(C)CC4)cc23)cc(N2CCOCC(CO)C2)c1=O (centres unmarked) [Compound 88, 4-[6-(hydroxymethyl)-1,4-oxazepan-4-yl]-2-methyl-6-[5-(1-methylcyclopropoxy)-1H-indazol-3-yl]pyridazin-3-one] |
| ≥ 7.30 | ≥ 7.30 | Cn1nc(-c2n[nH]c3ccc(OC4(C)CC4)cc23)cc(N2CC(F)C(C)(C)C2)c1=O (centres unmarked) [Compound 55, 4-(4-fluoro-3,3-dimethyl-pyrrolidin-1-yl)-2-methyl-6-[5-(1-methylcyclopropoxy)-1H-indazol-3-yl]pyridazin-3-one] |
| ≥ 7.30 | ≥ 7.30 | CN1CCN(c2cc(-c3n[nH]c4ccc(OC5(C)CC5)cc34)nn(C)c2=O)CCC1C(F)(F)F (centres unmarked) [Compound 65, 2-methyl-6-[5-(1-methylcyclopropoxy)-1H-indazol-3-yl]-4-[4-methyl-5-(trifluoromethyl)-1,4-diazepan-1-yl]pyridazin-3-one] |
